# From ChEMBL document CHEMBL1128904, “Synthesis and biological activity of 1-alkylcarbonylmethyl analogues of YM022” (Bioorg Med Chem Lett, 1996)
# Active and inactive are the calls of the source. The calls are words filed in the database; no cut-off is given here.
# How the values were obtained:
# [1] = target: T1, Gastrin/cholecystokinin type B receptor (Rattus norvegicus, UniProt P30553); assay: Ability to displace [125I]CCK-8 from gastrin/Cholecystokinin type B receptor from rat brain; format: tissue-based
# T1 sequence (P30553 whole entry): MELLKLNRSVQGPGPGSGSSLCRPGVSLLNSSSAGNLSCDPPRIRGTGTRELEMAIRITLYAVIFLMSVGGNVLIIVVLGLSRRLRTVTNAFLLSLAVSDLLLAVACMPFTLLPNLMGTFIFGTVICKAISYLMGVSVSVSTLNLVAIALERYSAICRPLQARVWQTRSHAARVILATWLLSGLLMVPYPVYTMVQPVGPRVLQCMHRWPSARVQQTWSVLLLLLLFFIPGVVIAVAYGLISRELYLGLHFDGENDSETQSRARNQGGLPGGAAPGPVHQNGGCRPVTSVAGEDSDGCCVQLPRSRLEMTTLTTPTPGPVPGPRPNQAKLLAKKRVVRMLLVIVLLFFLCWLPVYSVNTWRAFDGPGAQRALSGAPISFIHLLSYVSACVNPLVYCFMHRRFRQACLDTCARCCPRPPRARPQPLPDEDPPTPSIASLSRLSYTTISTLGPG
# Rattus norvegicus [2] = assay: Compound was evaluated for in vivo inhibition of pentagastrin induced gastric acid secretion in rats after id administration at dose of 0.3 umol/kg; format: functional; conditions: Stomach
# Rattus norvegicus [3] = assay: Compound was evaluated for in vivo inhibition of pentagastrin induced gastric acid secretion in rats after iv administration at dose of 0.03 umol/kg; format: functional; conditions: Stomach
# Rattus norvegicus [4] = assay: Compound was evaluated for in vivo inhibition of pentagastrin induced gastric acid secretion in rats by 50% after iv administration; format: functional; conditions: Stomach
# Rattus norvegicus [5] = assay: Compound was evaluated for in vivo inhibition of pentagastrin induced gastric acid secretion in rats after id administration at dose of 0.3 umol/kg; Not determined; format: functional, organism-based; conditions: Stomach
# Rattus norvegicus [6] = assay: Compound was evaluated for inhibition of pentagastrin induced gastric acid secretion in rats after id administration at dose of 0.3 umol/kg; format: functional; conditions: Stomach
# Rattus norvegicus [7] = assay: Compound was evaluated for inhibition of pentagastrin induced gastric acid secretion in rats by 50% after iv administration; format: functional; conditions: Stomach
# Rattus norvegicus [8] = assay: Compound was evaluated for in vivo inhibition of pentagastrin induced gastric acid secretion in rats after iv administration at dose of 0.1 umol/kg; format: functional; conditions: Stomach
# [9] = target: T2, Cholecystokinin receptor type A (Rattus norvegicus, UniProt P30551); assay: Compound was evaluated for its ability to displace [3H]L-364718 from Cholecystokinin type A receptor from rat pancreas
# T2 sequence (P30551 whole entry): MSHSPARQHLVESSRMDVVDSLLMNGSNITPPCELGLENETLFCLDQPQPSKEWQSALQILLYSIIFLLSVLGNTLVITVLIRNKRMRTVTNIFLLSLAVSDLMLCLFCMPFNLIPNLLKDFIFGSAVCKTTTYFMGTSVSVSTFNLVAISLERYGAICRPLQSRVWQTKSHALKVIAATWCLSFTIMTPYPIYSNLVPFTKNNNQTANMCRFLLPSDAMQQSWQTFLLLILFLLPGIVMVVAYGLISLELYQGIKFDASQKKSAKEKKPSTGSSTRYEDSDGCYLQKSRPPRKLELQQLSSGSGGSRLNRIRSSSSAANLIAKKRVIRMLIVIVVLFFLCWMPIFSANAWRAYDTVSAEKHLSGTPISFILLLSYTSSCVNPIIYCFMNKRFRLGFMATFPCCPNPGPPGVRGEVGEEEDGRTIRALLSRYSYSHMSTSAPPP
structure (smiles),measurement,setting,value
Cc1cccc(NC(=O)NC2N=C(c3ccccc3)c3ccccc3N(CC(=O)C3CCC3)C2=O)c1 (configuration not stated),IC50,[1],2.37 nM
Cc1cccc(NC(=O)NC2N=C(c3ccccc3)c3ccccc3N(CC(=O)C3(C)CCCCC3)C2=O)c1 (configuration not stated),IC50,[1],0.38 nM
Cc1cccc(NC(=O)NC2N=C(c3ccccc3)c3ccccc3N(CC(=O)C(C)(C)C)C2=O)c1 (configuration not stated),inhibition in vivo at 0.3 µmol/kg,Rattus norvegicus [2],80%
same,inhibition in vivo at 0.03 µmol/kg,Rattus norvegicus [3],76.7%
same,IC50,[1],0.52 nM
same,ED50,Rattus norvegicus [4],0.0057 µmol/kg
CCC(C)(C)C(=O)CN1C(=O)C(NC(=O)Nc2cccc(C)c2)N=C(c2ccccc2)c2ccccc21 (configuration not stated),IC50,[1],0.57 nM
Cc1cccc(NC(=O)N[C@H]2N=C(c3ccccc3)c3ccccc3N(CC(=O)C3CCCC3)C2=O)c1,IC50,[1],6.1 nM
Cc1cccc(NC(=O)NC2N=C(c3ccccc3)c3ccccc3N(CC(=O)C3(C)CCCC3)C2=O)c1 (configuration not stated),IC50,[1],0.1 nM
Cc1cccc(NC(=O)N[C@@H]2N=C(c3ccccc3)c3ccccc3N(C)C2=O)c1 [L-365260],inhibition in vivo at 0.03 µmol/kg,Rattus norvegicus [3],0%
same,inhibition,Rattus norvegicus [5],inactive
same,ED50,Rattus norvegicus [4],4.23 µmol/kg
Cc1cccc(NC(=O)NC2N=C(c3ccccc3)c3ccccc3N(CC(=O)C(C)(C)C3CCCCC3)C2=O)c1 (configuration not stated),IC50,[1],0.86 nM
Cc1cccc(NC(=O)NC2N=C(c3ccccc3)c3ccccc3N(CC(=O)C3CCCC3)C2=O)c1 (configuration not stated),inhibition in vivo at 0.3 µmol/kg,Rattus norvegicus [6],36%
same,ED50,Rattus norvegicus [7],0.0155 µmol/kg
same,inhibition in vivo at 0.03 µmol/kg,Rattus norvegicus [3],65.2%
same,IC50,[1],0.23 nM
Cc1cccc(NC(=O)NC2N=C(c3ccccc3)c3ccccc3N(CC(=O)CC3CCCCC3)C2=O)c1 (configuration not stated),IC50,[1],0.28 nM
CCC(CC)C(=O)CN1C(=O)C(NC(=O)Nc2cccc(C)c2)N=C(c2ccccc2)c2ccccc21 (configuration not stated),IC50,[1],1.9 nM
Cc1cccc(NC(=O)NC2N=C(c3ccccc3)c3ccccc3N(CC(=O)C(C)C)C2=O)c1 (configuration not stated),IC50,[1],2.1 nM
Cc1cccc(NC(=O)NC2N=C(c3ccccc3)c3ccccc3N(CC(=O)C3CCCCC3)C2=O)c1 (configuration not stated),inhibition in vivo at 0.1 µmol/kg,Rattus norvegicus [8],67%
same,IC50,[1],0.4 nM
Cc1cccc(NC(=O)NC2N=C(c3ccccc3)c3ccccc3N(CC(=O)C3CCCCCC3)C2=O)c1 (configuration not stated),inhibition in vivo at 0.03 µmol/kg,Rattus norvegicus [3],53.5%
same,IC50,[1],2 nM
Cc1cccc(NC(=O)N[C@@H]2N=C(c3ccccc3)c3ccccc3N(CC(=O)c3ccccc3C)C2=O)c1,inhibition in vivo at 0.3 µmol/kg,Rattus norvegicus [2],16%
same,inhibition in vivo at 0.03 µmol/kg,Rattus norvegicus [3],80%
same,IC50,[1],0.11 nM
same,IC50,[9],146 nM
same,ED50,Rattus norvegicus [4],0.0078 µmol/kg
Cc1cccc(NC(=O)N[C@@H]2N=C(c3ccccc3)c3ccccc3N(CC(=O)C3CCCC3)C2=O)c1,inhibition in vivo at 0.3 µmol/kg,Rattus norvegicus [2],31%
same,inhibition in vivo at 0.03 µmol/kg,Rattus norvegicus [3],79.9%
Cc1cccc(NC(=O)NC2N=C(c3ccccc3)c3ccccc3N(CC(=O)C3(C)CC3)C2=O)c1 (configuration not stated),IC50,[1],0.41 nM
